Structures can show the parent of a compound that is named as a salt.
B1: SmTAL1 (Schistosoma mansoni tegumental allergen-like protein 1) (natural protein, UniProt P14202 1-190, looked up)
chain: MATETKLSQMEEFIRAFLEIDADSNEMIDKQELIKYCQKYRLDMKLIDPWIARFDTDKDNKISIEEFCRGFGLKVSEIRREKDELKKERDGKFPKLPPNIEIIAATMSKTKQYEICCQFKEYVDNTSRTGNDMREVANKMKSLLDNTYGRVWQVVLLTGSYWMNFSHEPFLSIQFKYNNYVCLAWRTPSQ
notes: SmTAL1 (Sm22.6), Schistosoma mansoni, GenBank AAA29922.1, Smp_045200.1; also called Sm22.6; source: E. coli, GST-fusion isolated on glutathione-agarose, cleaved with thrombin, free GST removed on Q-Sepharose; not shown: GST, N-terminal, cleaved
B2: SmTAL2 (Schistosoma mansoni tegumental allergen-like protein 2) (natural protein, UniProt P32070 1-184, looked up)
chain: MDSPMEKFIQTYLTLLRDGDETVETSKLSESCRKEKLDMKQVNEWIALFDVDKDQKITFEEFCRGLGLKQNEMRIERNHIKTVQSGREQSLPEGVSIIASTMPKPKQVEVTQLFKDIYNEVKKDPDMNKVVKTFKSELERRYGRVWQVNAVTHSYWASFSHEPFQSIQFQYDNKIILAWRTPSN
notes: SmTAL2 (Sm21.7), Schistosoma mansoni, GenBank AAA74050.1, Smp_086480.1; also called Sm21.7; source: E. coli, GST-fusion isolated on glutathione-agarose, cleaved with thrombin, free GST removed on Q-Sepharose; not shown: GST, N-terminal, cleaved

Assays:
[1] = molecular target: T1, SmTAL1 (Sm22.6) (Schistosoma mansoni, UniProt P14202); experiment: differential scanning fluorimetry (Sypro Orange); format: binding; conditions: 250 µM; 0.25 mM drug, 5 μM protein, 1% DMSO, 0.8 mM CaCl2, 50 mM Hepes pH 7.5, 150 mM NaCl; absolute Tm, not a shift (DMSO control in the 1st table, row 5)
T1 construct: gene A12; recombinant, E. coli, N-terminal GST fusion cleaved with thrombin; EF-hand N-terminal plus DLC-like C-terminal domain; dimer
T1 sequence (P14202 1-190): B1 chain
Description: differential scanning fluorimetry (Sypro Orange) on SmTAL1 (Sm22.6)

[2] = molecular target: T2, SmTAL2 (Sm21.7) (Schistosoma mansoni, UniProt P32070); experiment: limited proteolysis protection (trypsin, chymotrypsin); format: binding; conditions: 250 μM drug, 10 μM protein, 1% DMSO, 0.8 mM CaCl2, 37 °C
T2 construct: recombinant, E. coli, N-terminal GST fusion cleaved with thrombin; EF-hand N-terminal plus DLC-like C-terminal domain; dimer
T2 sequence (P32070 1-184): B2 chain

[3] = molecular target: T3, SmTAL3 (Sm20.8) (Schistosoma mansoni, UniProt P91804); experiment: differential scanning fluorimetry (Sypro Orange); format: binding; conditions: 250 µM; 0.25 mM drug, 7 μM protein, 1% DMSO, 0.8 mM CaCl2, 50 mM Hepes pH 7.5, 150 mM NaCl; absolute Tm, not a shift (DMSO control in the 1st table, row 5)
T3 construct: gene Sm 20.8; recombinant, E. coli, N-terminal GST fusion cleaved with thrombin; EF-hand-like N-terminal plus DLC-like C-terminal domain; dimer and higher oligomers
T3 sequence (P91804 1-181): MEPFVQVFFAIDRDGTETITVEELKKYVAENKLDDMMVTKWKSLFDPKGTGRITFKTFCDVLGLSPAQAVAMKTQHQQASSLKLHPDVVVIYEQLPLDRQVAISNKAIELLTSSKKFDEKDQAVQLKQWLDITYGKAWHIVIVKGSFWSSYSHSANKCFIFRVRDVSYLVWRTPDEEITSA
Description: differential scanning fluorimetry (Sypro Orange) on SmTAL3 (Sm20.8)

[4] = molecular target: SmTAL3 (Schistosoma mansoni tegumental allergen-like protein 3) (Schistosoma mansoni); experiment: cross-linking; BS3 (50, 150, 500 μM) with 10-15 μM protein in buffer R (50 mM Hepes-OH pH 7.5, 150 mM NaCl, 10% v/v glycerol), 37 °C, 35 min; with 0.8 mM EGTA or 0.8 mM EGTA/1.6 mM calcium chloride; analysed by 15% SDS-PAGE
[5] = molecular target: the molecule itself; experiment: as above

Molecule	melting temperature (Tm) [1]	SmTAL3 [3]	further results
NCCCCCCNS(=O)(=O)c1cccc2c(Cl)cccc12 [W7, N-(6-Aminohexyl)-5-chloro-1-naphthalenesulfonamide hydrochloride]	61.5 ± 0.3 °C	74.3 ± 0.1 °C	limited proteolysis protection (trypsin, chymotrypsin) [2]: Of the drugs tested, only W7 protected SmTAL2 from limited proteolysis by trypsin or chymotrypsin
CN(C)CCCN1c2ccccc2Sc2ccc(Cl)cc21 [chlorpromazine]	61.3 ± 0.3 °C	74.1 ± 0.1 °C	
O=C(C1CCCCC1)N1CC(=O)N2CCc3ccccc3C2C1 (centres unmarked) [praziquantel]	61.7 ± 0.2 °C		
CN1CCN(CCCN2c3ccccc3Sc3ccc(C(F)(F)F)cc32)CC1 [trifluoperazine]	62.2 ± 0.8 °C	73.9 ± 0.1 °C	
SmTAL3 (Schistosoma mansoni tegumental allergen-like protein 3) (natural protein)			stoichiometry N [4]: 2
B1			stoichiometry N [5]: 2
B2			stoichiometry N [5]: 2

From paper PMC4300400, “Comparative biochemical analysis of three members of the Schistosoma mansoni TAL family: Differences in ion and drug binding properties” (Biochimie, 2015)
